In ChEMBL document CHEMBL4433257, “Novel conjugates of podophyllotoxin and coumarin: Synthesis, cytotoxicities, cell cycle arrest, binding CT DNA and inhibition of Topo IIβ” (Bioorg Med Chem Lett, 2019):
Activity calls are given as the source filed them. The calls are words filed in the database; no cut-off is given here.

Assays:
[1] = system: LoVo; test: Cytotoxicity against human LoVo cells incubated for 48 hrs by MTT assay; type: functional, cell-based
[2] = system: HepG2; test: Cytotoxicity against human HepG2 cells incubated for 48 hrs by MTT assay; type: functional, cell-based; conditions: HepG2, 48 h
[3] = system: A549; test: Cytotoxicity against human A549 cells incubated for 48 hrs by MTT assay; type: functional, cell-based; conditions: A549, 48 h
[4] = system: HeLa; test: Cytotoxicity against human HeLa cells incubated for 48 hrs by MTT assay; type: functional, cell-based
[5] = system: LoVo; test: Induction of cell cycle arrest in human LoVo cells assessed as increase in P21 gene expression level incubated for 24 hrs by Western blot analysis; type: functional, cell-based
[6] = system: Calf thymus DNA; test: Binding affinity to calf thymus DNA assessed as reduction in absorbance of DNA at 20 to 40 uM by UV/visible spectrophotometric analysis; type: nucleic-acid assay; conditions: Bos taurus
[7] = system: LoVo; test: Cell cycle arrest in human LoVo cells assessed as decrease in G2/M phase cell count incubated for 24 hrs by propidium iodide staining based flow cytometry analysis; type: functional
[8] = system: LoVo; test: Antiproliferative activity against human LoVo cells assessed as disruption of microtubule organization at 10 to 20 uM incubated for 6 hrs by immunofluorescence microscopy assay; type: functional, cell-based
[9] = system: LoVo; test: Induction of cell cycle arrest in human LoVo cells assessed as change in cdc2 gene expression level at 1 to 10 uM incubated for 24 hrs by Western blot analysis; type: functional, cell-based
[10] = system: LoVo; test: Cell cycle arrest in human LoVo cells assessed as accumulation at G1 phase at 5 uM incubated for 72 hrs by propidium iodide staining based flow cytometry analysis relative to control; type: functional
[11] = system: LoVo; test: Induction of cell cycle arrest in human LoVo cells assessed as decrease in topo 2alpha expression level at 5 uM incubated for 12 hrs by Western blot analysis; type: functional, cell-based
[12] = system: Calf thymus DNA; test: Binding affinity to calf thymus DNA assessed as reduction in compound emission intensity at 10 uM using varying DNA level by spectrofluorimetric analysis; type: nucleic-acid assay; conditions: Bos taurus
[13] = system: LoVo; test: Induction of cell cycle arrest in human LoVo cells assessed as decrease in cyclin D1 gene expression level incubated for 24 hrs by Western blot analysis; type: functional, cell-based
[14] = system: LoVo; test: Induction of cell cycle arrest in human LoVo cells assessed as change in cyclin B1 gene expression level at 1 to 10 uM incubated for 24 hrs by Western blot analysis; type: functional, cell-based
[15] = system: LoVo; test: Antiproliferative activity against human LoVo cells assessed as meshy microtubule network shrinkage around nucleus incubated for 6 hrs by immunofluorescence microscopy assay; type: functional, cell-based
[16] = system: LoVo; test: Cell cycle arrest in human LoVo cells assessed as increase in accumulation at G1 phase incubated for 24 hrs by propidium iodide staining based flow cytometry analysis; type: functional
[17] = system: LoVo; test: Cell cycle arrest in human LoVo cells assessed as accumulation at G1 phase at 5 uM incubated for 24 hrs by propidium iodide staining based flow cytometry analysis (reference value: 51.9%); type: functional
[18] = system: LoVo; test: Induction of cell cycle arrest in human LoVo cells assessed as decrease in topo 2beta expression level at 5 uM incubated for 12 hrs by Western blot analysis; type: functional, cell-based
[19] = system: Calf thymus DNA; test: Binding affinity to calf thymus DNA assessed as reduction in absorbance of DNA at 50 uM using varying DNA level by UV/visible spectrophotometric analysis; type: nucleic-acid assay; conditions: Bos taurus
[20] = system: LoVo; test: Antiproliferative activity against human LoVo cells assessed as induction of nuclei damage at 10 to 20 uM incubated for 6 hrs by immunofluorescence microscopy assay; type: functional, cell-based
[21] = system: LoVo; test: Antiproliferative activity against human LoVo cells assessed as abnormal mitotic spindle formation at 20 uM incubated for 6 hrs by immunofluorescence microscopy assay; type: functional, cell-based
[22] = system: LoVo; test: Antiproliferative activity against human LoVo cells assessed as induction of nuclear cleavage at 20 uM incubated for 6 hrs by immunofluorescence microscopy assay; type: functional, cell-based
[23] = system: LoVo; test: Cell cycle arrest in human LoVo cells assessed as accumulation at G1 phase at 5 uM incubated for 48 hrs by propidium iodide staining based flow cytometry analysis relative to control; type: functional
[24] = system: LoVo; test: Cell cycle arrest in human LoVo cells assessed as accumulation at G1 phase at 10 uM incubated for 24 hrs by propidium iodide staining based flow cytometry analysis (reference value: 51.9%); type: functional
[25] = system: LoVo; test: Antiproliferative activity against human LoVo cells assessed as interference with mitosis at 10 to 20 uM incubated for 6 hrs by immunofluorescence microscopy assay; type: functional, cell-based
[26] = system: LoVo; test: Induction of cell cycle arrest in human LoVo cells assessed as decrease in cyclin D1 gene expression level at 10 uM incubated for 24 hrs by Western blot analysis; type: functional, cell-based
[27] = system: LoVo; test: Induction of cell cycle arrest in human LoVo cells assessed as change in cdc2 gene expression level at 10 uM incubated for 24 hrs by Western blot analysis; type: functional, cell-based
[28] = system: LoVo; test: Induction of cell cycle arrest in human LoVo cells assessed as change in cyclin D1 gene expression level at 10 uM incubated for 24 hrs by Western blot analysis; type: functional, cell-based
[29] = system: LoVo; test: Antiproliferative activity against human LoVo cells assessed as nuclear changes at 10 uM incubated for 6 hrs by immunofluorescence microscopy assay; type: functional, cell-based
[30] = system: LoVo; test: Antiproliferative activity against human LoVo cells assessed as disorganization of microtubule network at 10 uM incubated for 6 hrs by immunofluorescence microscopy assay; type: functional, cell-based
[31] = system: LoVo; test: Induction of cell cycle arrest in human LoVo cells assessed as change in P21 gene expression level at 10 uM incubated for 24 hrs by Western blot analysis; type: functional, cell-based

COc1cc([C@@H]2c3cc4c(cc3[C@@H](n3cc(CNc5cc(=O)oc6ccccc56)nn3)[C@H]3COC(=O)[C@H]23)OCO4)cc(OC)c1O
IC50 [1]: 38.6 µM
IC50 [2]: 27.5 µM
IC50 [3]: 21.4 µM
IC50 [4]: 27.2 µM

COc1ccc2oc(=O)cc(NCc3cn([C@@H]4c5cc6c(cc5[C@@H](c5cc(OC)c(O)c(OC)c5)[C@H]5C(=O)OC[C@@H]54)OCO6)nn3)c2c1
Activity [5]: Dose-dependent effect
Activity [6]: Active
Activity [7]: Dose-dependent effect
Activity [8]: Active
IC50 [1]: 4.9 µM
Activity [9]: inactive
Activity [10]: 90%
Activity [11]: Active
Activity [12]: Active
Activity [13]: Dose-dependent effect
IC50 [2]: 9.9 µM
Activity [14]: inactive
Activity [15]: Active
Activity [16]: Dose-dependent effect
IC50 [3]: 17.5 µM
Activity [17]: 62%
Activity [18]: Active
Activity [19]: inactive
Activity [20]: Active
Activity [21]: Active
IC50 [4]: 9.7 µM
Activity [22]: Active
Activity [23]: 70.1%
Activity [24]: 79%
Activity [25]: Active

COc1ccc2oc(=O)cc(OCc3cn([C@@H]4c5cc6c(cc5[C@@H](c5cc(OC)c(O)c(OC)c5)[C@H]5C(=O)OC[C@@H]54)OCO6)nn3)c2c1
IC50 [1]: 9.4 µM
IC50 [2]: 8 µM
IC50 [3]: 19.6 µM
IC50 [4]: 18.3 µM

COc1ccc2c(OCc3cn([C@@H]4c5cc6c(cc5[C@@H](c5cc(OC)c(O)c(OC)c5)[C@H]5C(=O)OC[C@@H]54)OCO6)nn3)cc(=O)oc2c1
IC50 [1]: > 100 µM
IC50 [2]: 27.5 µM
IC50 [3]: 40.3 µM
IC50 [4]: > 100 µM

COc1cc([C@@H]2c3cc4c(cc3[C@@H](O[C@@H]3O[C@@H]5CO[C@@H](C)O[C@H]5[C@H](O)[C@H]3O)[C@H]3COC(=O)[C@H]23)OCO4)cc(OC)c1O [ETOPOSIDE]
Activity [26]: Active
Activity [27]: Active
IC50 [1]: 14.9 µM
Activity [10]: 2%
Activity [11]: Active
Activity [28]: Active
IC50 [2]: 10.5 µM
IC50 [3]: 25.6 µM
Activity [17]: 29.5%
Activity [18]: Active
Activity [29]: inactive
Activity [30]: Active
Activity [31]: Active

COc1cc([C@@H]2c3cc4c(cc3[C@@H](n3cc(COc5cc(=O)oc6ccc(Br)cc56)nn3)[C@H]3COC(=O)[C@H]23)OCO4)cc(OC)c1O
IC50 [1]: 19.8 µM
IC50 [2]: 4 µM
IC50 [3]: 27.7 µM
IC50 [4]: 20.1 µM

COc1cc([C@@H]2c3cc4c(cc3[C@@H](n3cc(COc5cc(=O)oc6cc(Br)ccc56)nn3)[C@H]3COC(=O)[C@H]23)OCO4)cc(OC)c1O
IC50 [1]: 24.2 µM
IC50 [2]: 15.6 µM
IC50 [3]: 23.8 µM
IC50 [4]: > 100 µM

COc1cc([C@@H]2c3cc4c(cc3[C@@H](n3cc(COc5cc(=O)oc6ccccc56)nn3)[C@H]3COC(=O)[C@H]23)OCO4)cc(OC)c1O
IC50 [1]: 40.8 µM
IC50 [2]: 31.3 µM
IC50 [3]: > 100 µM
IC50 [4]: 32.2 µM

COc1cc([C@@H]2c3cc4c(cc3[C@@H](n3cc(CNc5cc(=O)oc6cc(Br)ccc56)nn3)[C@H]3COC(=O)[C@H]23)OCO4)cc(OC)c1O
IC50 [1]: 7.3 µM
IC50 [2]: 13.6 µM
IC50 [3]: 13.3 µM
IC50 [4]: 19.8 µM

COc1cc([C@@H]2c3cc4c(cc3[C@@H](n3cc(CNc5cc(=O)oc6ccc(C)cc56)nn3)[C@H]3COC(=O)[C@H]23)OCO4)cc(OC)c1O
IC50 [1]: 76 µM
IC50 [2]: 17.2 µM
IC50 [3]: 34.8 µM
IC50 [4]: 38.3 µM

COc1ccc2c(NCc3cn([C@@H]4c5cc6c(cc5[C@@H](c5cc(OC)c(O)c(OC)c5)[C@H]5C(=O)OC[C@@H]54)OCO6)nn3)cc(=O)oc2c1
IC50 [1]: 12.6 µM
IC50 [2]: 11.1 µM
IC50 [3]: 28.1 µM
IC50 [4]: 48.2 µM

COc1cc([C@@H]2c3cc4c(cc3[C@@H](n3cc(CNc5cc(=O)oc6ccc(Br)cc56)nn3)[C@H]3COC(=O)[C@H]23)OCO4)cc(OC)c1O
IC50 [1]: 8.7 µM
IC50 [2]: 9.3 µM
IC50 [3]: 8.6 µM
IC50 [4]: 15.2 µM

COc1cc([C@@H]2c3cc4c(cc3[C@@H](n3cc(COc5cc(=O)oc6ccc(C)cc56)nn3)[C@H]3COC(=O)[C@H]23)OCO4)cc(OC)c1O
IC50 [1]: 33.2 µM
IC50 [2]: 40.2 µM
IC50 [3]: > 100 µM
IC50 [4]: 45.4 µM
